Laboratory results taken from PubChem BioAssay AID720588 (Broad Institute, 2013).
The source made the active and inactive calls.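 How the source made its calls: active means fitted curve falls past a set limit of signal loss at no more than twice the top dose; inconclusive means flat fit between 30 and 70% signal loss, or poor fit; inactive means signal rise, flat within 30%, or crossing too high.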

Assays:
[1] = test system: HEK293T viability, CellTiter-Glo ATP luminescence, 72 h; assay: ATP-based viability loss in HEK293T cells – cell-based, CellTiter-Glo luminescence, cherry-pick, set 3, cytotoxicity control, dose response (AID 720588);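 on AC35: potency for luminescence loss meaning cytotoxic compounds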
[2] = as above; conditions: HEK293T viability, CellTiter-Glo ATP luminescence, 72 h

SMILES | activity change, negative = cytotoxicity ([2]; at 26 µM (top of the series)) | other results
Cc1cc(C(=O)Nc2ccc3c(c2)C(=O)N(C)[C@@H]2CC[C@@H](CC(=O)NCc4ccc(-c5ccccc5)cc4)O[C@H]2CO3)no1 |  | AC35 [1]: 24.5 µM
CCN1/C(=C/C(C)=C/c2sc3ccccc3[n+]2CC)Sc2ccccc21 |  | AC35 [1]: 0.301 µM
C=C1C(=O)C=C[C@]2(C)C[C@@H]3OC(=O)[C@](C)(O)[C@H]3C[C@@H]12 |  | AC35 [1]: 8.77 µM
CO[C@H]1CN(C)C(=O)c2ccc(NC(=O)c3ccc(-c4ccccc4)cc3)cc2OC[C@H](C)NC[C@H]1C |  | AC35 [1]: 8.64 µM
COc1ccc(C=C2CCc3ccccc3C2=O)cc1 |  | AC35 [1]: 16.2 µM
CCOc1cc(/C=N/Nc2cc(C)nc(-n3nc(C)cc3C)n2)ccc1O |  | AC35 [1]: 4.12 µM
BrC(=C\c1ccccc1)/C=N/n1cnnc1 |  | AC35 [1]: 17.8 µM
COc1ccc(-c2cn(-c3ccc(OC)cc3)c3[n+]2-c2ccccc2CC3)cc1 |  | AC35 [1]: 7.06 µM
C[C@@H]1CN([C@@H](C)CO)C(=O)Cc2cc(NC(=O)Nc3ccc(C(F)(F)F)cc3)ccc2O[C@@H]1CN(C)Cc1ccc(C(=O)Nc2ccccc2N)cc1 |  | AC35 [1]: 17.4 µM
CCN(Cc1ccccc1)c1ccc(/C=N/N=C(N)N)cc1 |  | AC35 [1]: 13.2 µM
CC(C)=CCC/C(C)=C/CN1C(=O)N(c2ccc(F)cc2)[C@H]2C[C@@H](c3ccccc3)[C@@H](C)[C@@H](C(=O)N3CCOCC3)C[C@H]21 |  | AC35 [1]: 2.01 µM
Cn1ccc2cc(-c3ccc4ncnc(NCc5cccs5)c4c3)ccc21 |  | AC35 [1]: 9.58 µM
CC(C)CC(NC(=O)c1cccs1)c1nnc(SCc2ccc(Cl)c(Cl)c2)n1C (stereo not drawn) | -6.67% (inactive) | 
S=C(NCCN1CCOCC1)Nc1ccccc1Cl | -17.7% (inactive) | 
C/C(=N\OCc1cccc(C(=O)O)c1)c1ccc(Cl)cc1 | -6.62% (inactive) | 
CCOc1ccccc1CNC(=O)c1ccc(Sc2ccc(Cl)cc2)c(NC(C)=O)c1 | -4.6% (inactive) | 
Cc1ccc(N=C2NC(=O)/C(=C\c3cccs3)S2)cc1C | -13% (inactive) | 
CCc1cnc(N2[C@H](C#N)[C@H](c3ccc(C#Cc4ccccc4F)cc3)[C@H]2CO)s1 | -15.3% (inactive) | 
COc1ccc(Nc2oc(COc3ccccc3OC)nc2C#N)cc1 | -13.8% (inactive) | 
O=C(CCCN1C(=O)S/C(=C\c2ccccc2)C1=O)NNC(=O)c1ccccc1O | -28.3% (inactive) | 
Cc1noc(C)c1NC(=O)Nc1ccc2c(c1)CC(=O)N([C@@H](C)CO)C[C@@H](C)[C@@H](CN(C)Cc1ccc(Cl)c(Cl)c1)O2 | 61.4% (inactive) | 
COc1cc(/C=C/C(=O)CC(=O)/C=C/c2ccc(O)c(OC)c2)ccc1O | -41.3% (inactive) | 

SMILES | activity change, negative = cytotoxicity ([2]; at 26 µM (top of the series)) | other results
CC(C)NC(=O)N(C)C[C@@H]1Oc2cc(C#Cc3ccc(F)cc3)ccc2S(=O)(=O)N([C@H](C)CO)C[C@H]1C | -0.81% (inactive) | 
COc1ccc(NC(=O)N(C)[C@H]2C[C@H]3c4[nH]c5ccccc5c4CCN3C(=O)[C@H]2CO)cc1 | -20.7% (inactive) | 
CN(C(=O)COC(=O)c1cc(-c2ccccc2Cl)nc2ccccc12)C1CCS(=O)(=O)C1 (stereo not drawn) | -26.1% (inactive) | 
O=C(O)CN1C(=O)/C(=C\c2ccccc2OCc2ccc(Cl)cc2Cl)SC1=S | 4.7% (inactive) | 
O=C(/C=C/c1ccc(Cl)cc1Cl)N(Cc1ccc(Cl)cc1)C1CCS(=O)(=O)C1 (stereo not drawn) | -14.5% (inactive) | 
O=c1[nH]c(=O)n([C@H]2C[C@H](O)[C@@H](CO)O2)cc1C(F)(F)F | -10.4% (inactive) | 
CCc1ccc(Cn2ncc3c(C(=O)O)cc(C)nc32)cc1 | -2.66% (inactive) | 
CN1C(=O)c2cc(NC(=O)c3ccc(C(F)(F)F)cc3)ccc2OC[C@@H]2O[C@@H](CC(=O)NC3Cc4ccccc4C3)CC[C@H]21 | -32.5% (inactive) | 
O=C(c1cccc(S(=O)(=O)NCc2ccccc2)c1)N1CCN(c2ccccc2)CC1 | -21.2% (inactive) | 
COc1ccccc1-c1cn(CC[C@H]2CC[C@@H](NC(=O)C3CCCC3)[C@@H](CO)O2)nn1 | 0.512% (inactive) | 
CN(C)C(=O)c1cccc(-c2ccc(C3[C@@H]4CN(Cc5nccs5)C[C@H]3N4)cc2)c1 (stereo partly drawn) | 51.7% (inactive) | 
COC(=O)C[C@@H]1CC[C@@H]2[C@@H](COc3ccc(NC(=O)Nc4cccc(Cl)c4)cc3C(=O)N2C)O1 |  | activity change, negative = cytotoxicity ([2]; at 23.5 µM (top of the series)): 4.77% (inactive)
CCc1ccc2oc(C(=O)N3CCN(c4ccccc4OC)CC3)cc(=O)c2c1 | -13.2% (inactive) | 
CCOc1cc(N2CCC(O)CC2)ccc1Nc1ncc2c(n1)N(C)c1ccccc1C(=O)N2C | 22.8% (inactive) | 
C(=C\c1ccc(C2[C@H]3CNC[C@@H]2N3Cc2ccccn2)cc1)/c1ccccc1 (stereo partly drawn) | 39.5% (inactive) | 
COc1cc(/C=N\Nc2nc(-c3ccc(C)cc3)c(NC(C)=O)s2)ccc1O | -4.57% (inactive) | 
COc1ccc2cc(C(N)=O)/c(=N\NC(=O)c3ccccc3)oc2c1 | -13.7% (inactive) | 
Cc1ccc2oc(/N=C(\N)NC(=O)C(C)(C)C)nc2c1 | -11% (inactive) | 
Cc1ccc(Cl)cc1NC(=O)Cn1cc(C(F)(F)F)cc(Cl)c1=O | 0.88% (inactive) | 
CCC1=Nc2cc(C(=O)NCC3CCCO3)ccc2Sc2ccc(Br)cc21 (stereo not drawn) | -27.1% (inactive) | 
COc1ccc(CCC(C)NCC2CCCCC2)cc1 (stereo not drawn) | 4.78% (inactive) | 
